Values joined by “and” are separate entries in the source; they are usually repeats but may differ in a detail not shown here. Equal entries are not always repeated.
How the values were obtained:
ALK2/ACVR1 = target: T1, ALK2/ACVR1 (Homo sapiens, UniProt Q04771); assay: HotSpot kinase assay; assay type: biochemical; settings: read-out: % Enzyme Activity (relative to DMSO controls)
T1 construct: purchased Reaction Biology Corporation

CAMK1a = target: T2, CAMK1a (Homo sapiens, UniProt Q14012); assay: HotSpot kinase assay; assay type: biochemical; settings: read-out: % Enzyme Activity (relative to DMSO controls)
T2 construct: purchased Reaction Biology Corporation

CAMKK2 = target: T3, CAMKK2 (Homo sapiens, UniProt Q96RR4); assay: HotSpot kinase assay; assay type: biochemical; settings: read-out: % Enzyme Activity (relative to DMSO controls)
T3 construct: purchased Reaction Biology Corporation

CDK1/cyclin E = target: T4, CDK1/cyclin E (Homo sapiens, UniProt P06493); assay: HotSpot kinase assay; assay type: biochemical; settings: read-out: % Enzyme Activity (relative to DMSO controls)
T4 construct: purchased Reaction Biology Corporation

CDK14/cyclin Y (PFTK1) = target: T5, CDK14/cyclin Y (PFTK1) (Homo sapiens, UniProt O94921); assay: HotSpot kinase assay; assay type: biochemical; settings: read-out: % Enzyme Activity (relative to DMSO controls)
T5 construct: purchased Reaction Biology Corporation

CLK3 = target: T6, CLK3 (Homo sapiens, UniProt P49761); assay: HotSpot kinase assay; assay type: biochemical; settings: read-out: % Enzyme Activity (relative to DMSO controls)
T6 construct: purchased Reaction Biology Corporation

CTK/MATK = target: T7, CTK/MATK (Homo sapiens, UniProt P42679); assay: HotSpot kinase assay; assay type: biochemical; settings: read-out: % Enzyme Activity (relative to DMSO controls)
T7 construct: purchased Reaction Biology Corporation

DDR1 = target: T8, DDR1 (Homo sapiens, UniProt Q08345); assay: HotSpot kinase assay; assay type: biochemical; settings: read-out: % Enzyme Activity (relative to DMSO controls)
T8 construct: purchased Reaction Biology Corporation
T8 sequence (Q08345 19-913): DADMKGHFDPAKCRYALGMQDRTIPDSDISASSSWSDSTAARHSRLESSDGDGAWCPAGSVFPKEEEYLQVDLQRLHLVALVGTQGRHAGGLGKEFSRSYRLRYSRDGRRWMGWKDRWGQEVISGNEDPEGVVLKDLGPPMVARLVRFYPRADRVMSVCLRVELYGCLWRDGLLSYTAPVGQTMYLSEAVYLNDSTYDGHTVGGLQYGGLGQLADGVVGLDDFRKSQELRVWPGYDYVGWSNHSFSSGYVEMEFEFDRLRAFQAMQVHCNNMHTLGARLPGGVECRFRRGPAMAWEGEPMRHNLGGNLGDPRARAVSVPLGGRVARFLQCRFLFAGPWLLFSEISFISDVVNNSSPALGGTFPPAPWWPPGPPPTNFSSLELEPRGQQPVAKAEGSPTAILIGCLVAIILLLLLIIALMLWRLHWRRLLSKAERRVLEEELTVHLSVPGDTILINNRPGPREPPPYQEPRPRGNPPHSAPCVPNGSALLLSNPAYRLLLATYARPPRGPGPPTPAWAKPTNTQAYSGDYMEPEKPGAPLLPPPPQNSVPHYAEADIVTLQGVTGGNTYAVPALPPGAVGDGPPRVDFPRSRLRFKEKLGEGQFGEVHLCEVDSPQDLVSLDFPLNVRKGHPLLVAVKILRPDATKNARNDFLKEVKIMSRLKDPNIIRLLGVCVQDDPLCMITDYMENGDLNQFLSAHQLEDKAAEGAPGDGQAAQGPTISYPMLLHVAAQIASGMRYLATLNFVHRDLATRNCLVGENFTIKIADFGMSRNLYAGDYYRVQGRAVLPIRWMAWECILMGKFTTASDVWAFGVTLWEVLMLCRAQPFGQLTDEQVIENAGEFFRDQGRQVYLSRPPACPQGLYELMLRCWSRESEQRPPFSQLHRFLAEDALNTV

EPHB4 = target: T9, EPHB4 (Homo sapiens, UniProt P54760); assay: HotSpot kinase assay; assay type: biochemical; settings: read-out: % Enzyme Activity (relative to DMSO controls)
T9 construct: purchased Reaction Biology Corporation

FLT1/VEGFR1 = target: T10, FLT1/VEGFR1 (Homo sapiens, UniProt P17948); assay: HotSpot kinase assay; assay type: biochemical; settings: read-out: % Enzyme Activity (relative to DMSO controls)
T10 construct: purchased Reaction Biology Corporation

HIPK3 = target: T11, HIPK3 (Homo sapiens, UniProt Q9H422); assay: HotSpot kinase assay; assay type: biochemical; settings: read-out: % Enzyme Activity (relative to DMSO controls)
T11 construct: purchased Reaction Biology Corporation

IKKb/IKBKB = target: T12, IKKb/IKBKB (Homo sapiens, UniProt O14920); assay: HotSpot kinase assay; assay type: biochemical; settings: read-out: % Enzyme Activity (relative to DMSO controls)
T12 construct: purchased Reaction Biology Corporation

LCK2/ICK = target: T13, LCK2/ICK (Homo sapiens, UniProt Q9UPZ9); assay: HotSpot kinase assay; assay type: biochemical; settings: read-out: % Enzyme Activity (relative to DMSO controls)
T13 construct: purchased Reaction Biology Corporation
T13 sequence (Q9UPZ9 whole entry): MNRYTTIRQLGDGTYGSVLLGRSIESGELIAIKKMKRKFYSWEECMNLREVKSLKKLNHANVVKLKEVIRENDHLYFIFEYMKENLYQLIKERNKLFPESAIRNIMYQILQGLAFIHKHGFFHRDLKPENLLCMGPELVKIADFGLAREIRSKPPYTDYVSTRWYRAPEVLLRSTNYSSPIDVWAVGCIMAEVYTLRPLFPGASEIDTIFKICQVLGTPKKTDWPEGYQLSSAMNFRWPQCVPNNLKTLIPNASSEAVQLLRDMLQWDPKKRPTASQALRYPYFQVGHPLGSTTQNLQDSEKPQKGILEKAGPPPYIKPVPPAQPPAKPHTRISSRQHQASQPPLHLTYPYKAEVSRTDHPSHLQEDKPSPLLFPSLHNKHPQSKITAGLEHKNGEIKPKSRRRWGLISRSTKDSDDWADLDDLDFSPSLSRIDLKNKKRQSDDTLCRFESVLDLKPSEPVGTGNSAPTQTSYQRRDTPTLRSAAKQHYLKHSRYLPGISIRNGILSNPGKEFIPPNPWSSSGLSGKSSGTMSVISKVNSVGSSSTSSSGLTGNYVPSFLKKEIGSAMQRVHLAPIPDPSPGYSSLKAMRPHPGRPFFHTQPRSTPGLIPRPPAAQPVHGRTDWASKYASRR

MARK1 = target: T14, MARK1 (Homo sapiens, UniProt Q9P0L2); assay: HotSpot kinase assay; assay type: biochemical; settings: read-out: % Enzyme Activity (relative to DMSO controls)
T14 construct: purchased Reaction Biology Corporation

MLK2/MAP3K10 = target: T15, MLK2/MAP3K10 (Homo sapiens, UniProt Q02779); assay: HotSpot kinase assay; assay type: biochemical; settings: read-out: % Enzyme Activity (relative to DMSO controls)
T15 construct: purchased Reaction Biology Corporation
T15 sequence (Q02779 whole entry): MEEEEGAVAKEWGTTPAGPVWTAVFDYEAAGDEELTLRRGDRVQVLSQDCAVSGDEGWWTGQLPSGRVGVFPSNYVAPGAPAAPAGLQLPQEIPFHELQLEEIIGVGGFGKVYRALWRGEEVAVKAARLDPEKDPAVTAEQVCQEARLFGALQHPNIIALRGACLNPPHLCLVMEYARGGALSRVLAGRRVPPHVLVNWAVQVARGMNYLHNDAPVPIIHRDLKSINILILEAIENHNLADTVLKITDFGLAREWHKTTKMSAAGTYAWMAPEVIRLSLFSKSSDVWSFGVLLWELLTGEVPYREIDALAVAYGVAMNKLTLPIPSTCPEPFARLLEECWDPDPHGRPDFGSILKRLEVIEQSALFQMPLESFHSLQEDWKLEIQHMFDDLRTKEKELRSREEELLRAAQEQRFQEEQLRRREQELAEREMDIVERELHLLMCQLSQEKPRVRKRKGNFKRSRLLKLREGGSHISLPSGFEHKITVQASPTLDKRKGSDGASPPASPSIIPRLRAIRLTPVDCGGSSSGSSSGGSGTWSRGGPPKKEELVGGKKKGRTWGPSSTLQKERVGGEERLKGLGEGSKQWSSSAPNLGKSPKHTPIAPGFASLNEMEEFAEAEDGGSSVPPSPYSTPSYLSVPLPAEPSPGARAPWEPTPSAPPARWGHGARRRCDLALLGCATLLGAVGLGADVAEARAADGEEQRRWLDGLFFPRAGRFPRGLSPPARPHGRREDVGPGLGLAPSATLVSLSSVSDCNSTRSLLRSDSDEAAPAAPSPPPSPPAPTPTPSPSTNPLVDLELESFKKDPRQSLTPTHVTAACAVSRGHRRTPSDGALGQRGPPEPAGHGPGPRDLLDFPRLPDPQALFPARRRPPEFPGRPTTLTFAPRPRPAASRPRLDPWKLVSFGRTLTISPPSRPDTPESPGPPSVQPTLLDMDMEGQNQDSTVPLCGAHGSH

MLK4 = target: T16, MLK4 (Homo sapiens, UniProt Q5TCX8); assay: HotSpot kinase assay; assay type: biochemical; settings: read-out: % Enzyme Activity (relative to DMSO controls)
T16 construct: purchased Reaction Biology Corporation

MST3/STK24 = target: T17, MST3/STK24 (Homo sapiens, UniProt Q9Y6E0); assay: HotSpot kinase assay; assay type: biochemical; settings: read-out: % Enzyme Activity (relative to DMSO controls)
T17 construct: purchased Reaction Biology Corporation

MST4 = target: T18, MST4 (Homo sapiens, UniProt Q9P289); assay: HotSpot kinase assay; assay type: biochemical; settings: read-out: % Enzyme Activity (relative to DMSO controls)
T18 construct: purchased Reaction Biology Corporation

MYO3b = target: T19, MYO3b (Homo sapiens, UniProt Q8WXR4); assay: HotSpot kinase assay; assay type: biochemical; settings: read-out: % Enzyme Activity (relative to DMSO controls)
T19 construct: purchased Reaction Biology Corporation

NEK5 = target: T20, NEK5 (Homo sapiens, UniProt Q6P3R8); assay: HotSpot kinase assay; assay type: biochemical; settings: read-out: % Enzyme Activity (relative to DMSO controls)
T20 construct: purchased Reaction Biology Corporation

OSR1/OXSR1 = target: T21, OSR1/OXSR1 (Homo sapiens, UniProt O95747); assay: HotSpot kinase assay; assay type: biochemical; settings: read-out: % Enzyme Activity (relative to DMSO controls)
T21 construct: purchased Reaction Biology Corporation

PASK = target: T22, PASK (Homo sapiens, UniProt Q96RG2); assay: HotSpot kinase assay; assay type: biochemical; settings: read-out: % Enzyme Activity (relative to DMSO controls)
T22 construct: purchased Reaction Biology Corporation
T22 sequence (Q96RG2 whole entry): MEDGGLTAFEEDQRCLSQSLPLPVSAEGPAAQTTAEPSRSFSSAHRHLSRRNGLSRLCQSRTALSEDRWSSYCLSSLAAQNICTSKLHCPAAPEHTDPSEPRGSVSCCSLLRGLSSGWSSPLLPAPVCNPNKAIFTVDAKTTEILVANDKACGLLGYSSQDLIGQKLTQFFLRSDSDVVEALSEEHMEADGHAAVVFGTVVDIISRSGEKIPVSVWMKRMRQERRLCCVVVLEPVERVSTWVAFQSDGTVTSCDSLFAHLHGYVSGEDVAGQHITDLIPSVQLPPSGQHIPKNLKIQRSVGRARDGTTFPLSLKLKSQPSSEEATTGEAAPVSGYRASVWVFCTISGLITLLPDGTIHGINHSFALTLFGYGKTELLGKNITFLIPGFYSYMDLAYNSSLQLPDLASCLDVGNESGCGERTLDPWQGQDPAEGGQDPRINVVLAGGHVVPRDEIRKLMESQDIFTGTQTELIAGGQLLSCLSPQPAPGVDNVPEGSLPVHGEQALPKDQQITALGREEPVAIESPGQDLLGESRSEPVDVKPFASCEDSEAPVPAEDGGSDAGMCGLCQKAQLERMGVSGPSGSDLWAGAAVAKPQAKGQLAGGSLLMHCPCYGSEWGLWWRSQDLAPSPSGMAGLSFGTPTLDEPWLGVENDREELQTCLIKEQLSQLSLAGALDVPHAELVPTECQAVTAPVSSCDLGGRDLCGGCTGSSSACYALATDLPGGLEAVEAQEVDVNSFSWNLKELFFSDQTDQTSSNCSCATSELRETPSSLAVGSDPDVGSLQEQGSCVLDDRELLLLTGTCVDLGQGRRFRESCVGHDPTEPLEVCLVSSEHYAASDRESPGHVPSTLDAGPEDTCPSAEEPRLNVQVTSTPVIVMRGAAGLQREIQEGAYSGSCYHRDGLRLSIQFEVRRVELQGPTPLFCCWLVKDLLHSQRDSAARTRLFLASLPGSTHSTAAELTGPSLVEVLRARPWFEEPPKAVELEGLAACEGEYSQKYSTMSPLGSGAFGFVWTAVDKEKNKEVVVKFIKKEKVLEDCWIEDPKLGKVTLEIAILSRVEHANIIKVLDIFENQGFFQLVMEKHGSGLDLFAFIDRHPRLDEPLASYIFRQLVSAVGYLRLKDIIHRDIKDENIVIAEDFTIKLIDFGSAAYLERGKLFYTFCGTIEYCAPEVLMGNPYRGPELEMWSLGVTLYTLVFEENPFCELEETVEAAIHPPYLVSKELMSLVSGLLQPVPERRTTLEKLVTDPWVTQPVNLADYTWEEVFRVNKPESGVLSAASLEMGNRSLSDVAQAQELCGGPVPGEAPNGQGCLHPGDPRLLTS

PDGFRa = target: T23, PDGFRa (Homo sapiens, UniProt P16234); assay: HotSpot kinase assay; assay type: biochemical; settings: read-out: % Enzyme Activity (relative to DMSO controls)
T23 construct: purchased Reaction Biology Corporation

PHKg1 = target: T24, PHKg1 (Homo sapiens, UniProt Q16816); assay: HotSpot kinase assay; assay type: biochemical; settings: read-out: % Enzyme Activity (relative to DMSO controls)
T24 construct: purchased Reaction Biology Corporation
T24 sequence (Q16816 whole entry): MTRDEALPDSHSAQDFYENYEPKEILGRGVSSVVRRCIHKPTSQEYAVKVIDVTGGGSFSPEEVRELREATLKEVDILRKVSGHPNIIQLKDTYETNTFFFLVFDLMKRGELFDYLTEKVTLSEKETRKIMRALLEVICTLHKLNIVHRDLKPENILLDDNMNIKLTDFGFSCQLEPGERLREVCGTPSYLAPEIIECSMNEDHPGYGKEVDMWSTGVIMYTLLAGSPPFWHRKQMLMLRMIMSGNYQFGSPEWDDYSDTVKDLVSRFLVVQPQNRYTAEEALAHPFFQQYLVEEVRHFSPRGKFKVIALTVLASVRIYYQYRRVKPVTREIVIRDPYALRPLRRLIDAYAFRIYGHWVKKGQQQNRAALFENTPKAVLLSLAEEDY

PKAcg = target: T25, PKAcg (Homo sapiens, UniProt P22612); assay: HotSpot kinase assay; assay type: biochemical; settings: read-out: % Enzyme Activity (relative to DMSO controls)
T25 construct: purchased Reaction Biology Corporation
T25 sequence (P22612 whole entry): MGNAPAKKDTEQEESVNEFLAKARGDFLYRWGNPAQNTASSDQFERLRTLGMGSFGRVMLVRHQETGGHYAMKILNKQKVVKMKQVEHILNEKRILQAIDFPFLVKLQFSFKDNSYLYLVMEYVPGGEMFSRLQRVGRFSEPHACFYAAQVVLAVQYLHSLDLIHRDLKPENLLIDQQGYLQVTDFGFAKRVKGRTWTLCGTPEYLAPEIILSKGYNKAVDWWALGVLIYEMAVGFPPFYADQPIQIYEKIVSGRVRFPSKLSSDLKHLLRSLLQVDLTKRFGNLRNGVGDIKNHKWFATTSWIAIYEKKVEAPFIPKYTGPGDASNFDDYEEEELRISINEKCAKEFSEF

PKCb1 = target: T26, PKCb1 (Homo sapiens, UniProt P05771); assay: biochemical; settings: read-out: % Enzyme Activity (relative to DMSO controls)
T26 construct: purchased Reaction Biology Corporation

PKCb2 = target: T27, PKCb2 (Homo sapiens, UniProt P05771); assay: HotSpot kinase assay; assay type: biochemical; settings: read-out: % Enzyme Activity (relative to DMSO controls)
T27 construct: purchased Reaction Biology Corporation

PKCtheta = target: T28, PKCtheta (Homo sapiens, UniProt Q04759); assay: HotSpot kinase assay; assay type: biochemical; settings: read-out: % Enzyme Activity (relative to DMSO controls)
T28 construct: purchased Reaction Biology Corporation

RON/MST1R = target: T29, RON/MST1R (Homo sapiens, UniProt Q04912); assay: HotSpot kinase assay; assay type: biochemical; settings: read-out: % Enzyme Activity (relative to DMSO controls)
T29 construct: purchased Reaction Biology Corporation

RSK2 = target: T30, RSK2 (Homo sapiens, UniProt P51812); assay: HotSpot kinase assay; assay type: biochemical; settings: read-out: % Enzyme Activity (relative to DMSO controls)
T30 construct: purchased Reaction Biology Corporation

SNRK = target: T31, SNRK (Homo sapiens, UniProt Q9NRH2); assay: HotSpot kinase assay; assay type: biochemical; settings: read-out: % Enzyme Activity (relative to DMSO controls)
T31 construct: purchased Reaction Biology Corporation

SRPK2 = target: T32, SRPK2 (Homo sapiens, UniProt P78362); assay: HotSpot kinase assay; assay type: biochemical; settings: read-out: % Enzyme Activity (relative to DMSO controls)
T32 construct: purchased Reaction Biology Corporation

STK32C/YANK3 = target: T33, STK32C/YANK3 (Homo sapiens, UniProt Q86UX6); assay: HotSpot kinase assay; assay type: biochemical; settings: read-out: % Enzyme Activity (relative to DMSO controls)
T33 construct: purchased Reaction Biology Corporation
T33 sequence (Q86UX6 whole entry): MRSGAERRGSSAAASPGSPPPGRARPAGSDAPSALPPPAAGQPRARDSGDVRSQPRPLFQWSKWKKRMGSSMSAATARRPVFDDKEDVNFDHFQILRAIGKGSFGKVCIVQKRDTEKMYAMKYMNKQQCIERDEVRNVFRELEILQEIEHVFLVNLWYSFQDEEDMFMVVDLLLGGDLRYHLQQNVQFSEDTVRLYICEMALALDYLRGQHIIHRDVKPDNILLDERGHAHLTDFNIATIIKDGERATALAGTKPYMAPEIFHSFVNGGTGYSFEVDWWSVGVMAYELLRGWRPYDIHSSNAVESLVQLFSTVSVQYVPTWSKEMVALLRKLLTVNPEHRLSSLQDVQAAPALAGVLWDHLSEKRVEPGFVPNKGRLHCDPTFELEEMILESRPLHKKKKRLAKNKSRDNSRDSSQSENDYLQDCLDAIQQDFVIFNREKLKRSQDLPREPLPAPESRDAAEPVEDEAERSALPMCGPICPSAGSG

STK38/NDR1 = target: T34, STK38/NDR1 (Homo sapiens, UniProt Q15208); assay: HotSpot kinase assay; assay type: biochemical; settings: read-out: % Enzyme Activity (relative to DMSO controls)
T34 construct: purchased Reaction Biology Corporation

SYK = target: T35, SYK (Homo sapiens, UniProt P43405); assay: HotSpot kinase assay; assay type: biochemical; settings: read-out: % Enzyme Activity (relative to DMSO controls)
T35 construct: purchased Reaction Biology Corporation

TESK2 = target: T36, TESK2 (Homo sapiens, UniProt Q96S53); assay: HotSpot kinase assay; assay type: biochemical; settings: read-out: % Enzyme Activity (relative to DMSO controls)
T36 construct: purchased Reaction Biology Corporation

WNK1 = target: T37, WNK1 (Homo sapiens, UniProt Q9H4A3); assay: HotSpot kinase assay; assay type: biochemical; settings: read-out: % Enzyme Activity (relative to DMSO controls)
T37 construct: purchased Reaction Biology Corporation

YES/YES1 = target: T38, YES/YES1 (Homo sapiens, UniProt P07947); assay: HotSpot kinase assay; assay type: biochemical; settings: read-out: % Enzyme Activity (relative to DMSO controls)
T38 construct: purchased Reaction Biology Corporation

[1] = tested on: intracellular Ca2+ response to HSV-2(G); assay: calcium kinetic measurements (Fura-2), HaCat cells; assay type: cell-based, human; settings: for mean calcium released: CIMSS without virus (Fig 4b source data)
Method: The cells were then transferred to SpectraMaxMF^e temperature-regulated chamber at 37 °C (Molecular Devices Ca) without washing; photometric data for intracellular Ca^2+ concentration [Ca^2+] were generated by exciting cells at 340 and 380 nm and measuring emission at 510 nm every minute for one hour using SoftMaxPro. 5.4 software (Molecular Devices). An intracellular calibration was performed with each experiment by determining the fluorescence ratio (340:380) in the presence of Ca-free 10 mM K2EGTA buffer (Rmin) and 10 mM CaEGTA buffer containing 10 µM ionomycin (Rmax) (C-3008, Calcium Calibration Buffer Kit #1, Invitrogen Molecular Probes).

## CO[C@@H]1[C@H](N(C)C(=O)CCC(=O)NCc2cn(CCCS(=O)(=O)O)nn2)C[C@H]2O[C@]1(C)n1c3ccccc3c3c4c(c5c6ccccc6n2c5c31)C(=O)NC4 [CIMSS]
ALK2/ACVR1
  remaining activity at 10 µM: 72.7%
CAMK1a
  remaining activity at 10 µM: 28.7%
CAMKK2
  remaining activity at 10 µM: 1.86%
CDK1/cyclin E
  remaining activity at 10 µM: 18%
CDK14/cyclin Y (PFTK1)
  remaining activity at 10 µM: 74.5%
CLK3
  remaining activity at 10 µM: 35.4%
CTK/MATK
  remaining activity at 10 µM: 24.6%
DDR1
  remaining activity at 10 µM: 0.98%
EPHB4
  remaining activity at 10 µM: 19.4%
FLT1/VEGFR1
  remaining activity at 10 µM: 2.92%
HIPK3
  remaining activity at 10 µM: 14.5%
IKKb/IKBKB
  remaining activity at 10 µM: 33.4%
LCK2/ICK
  remaining activity at 10 µM: 4.57%
MARK1
  remaining activity at 10 µM: 1.18%
MLK2/MAP3K10
  remaining activity at 10 µM: 1.86%
MLK4
  remaining activity at 10 µM: 0.87%
MST3/STK24
  remaining activity at 10 µM: 16.6%
MST4
  remaining activity at 10 µM: 1.35%
MYO3b
  remaining activity at 10 µM: 4.81%
NEK5
  remaining activity at 10 µM: 6.56%
OSR1/OXSR1
  remaining activity at 10 µM: 54.2%
PASK
  remaining activity at 10 µM: 41.6%
PDGFRa
  remaining activity at 10 µM: 6.05%
PHKg1
  remaining activity at 10 µM: 3.74%
PKAcg
  remaining activity at 10 µM: 2.07%
PKCb1
  remaining activity at 10 µM: 2.83%
PKCb2
  remaining activity at 10 µM: 1.71%
PKCtheta
  remaining activity at 10 µM: 7.08%
RON/MST1R
  remaining activity at 10 µM: 25.1%
RSK2
  remaining activity at 10 µM: 1.69%
SNRK
  remaining activity at 10 µM: 72.5%
SRPK2
  remaining activity at 10 µM: 8.02%
STK32C/YANK3
  remaining activity at 10 µM: 20.5%
STK38/NDR1
  remaining activity at 10 µM: 8.29%
SYK
  remaining activity at 10 µM: 0.87%
TESK2
  remaining activity at 10 µM: 91.2%
WNK1
  remaining activity at 10 µM: 110%
YES/YES1
  remaining activity at 10 µM: 1.4%
[1]; 10 µM, first hour pi
  extended Ca2+ release: significant reduction
[1]; 10 µM, first three minutes
  initial Ca2+ transient: did not block
[1]; 3 minutes
  mean calcium released: 38.88 and 30.45 and 39.3074 and 44.7233
[1]; 1 hour
  mean calcium released: 90.67 and 95.94 and 99.48 and 102.73
